Data as given in article PMC6704710, “Preclinical evaluation of 3D185, a novel potent inhibitor of FGFR1/2/3 and CSF-1R, in FGFR-dependent and macrophage-dominant cancer models” (Journal of Experimental & Clinical Cancer Research : CR, 2019).

What was measured:
Test in all cases: Eurofins kinase panel
Assay type in all cases: biochemical
[1] = biological target: T1, cKit(D816V)(h) (Homo sapiens, UniProt P10721, D816V); details: read-out: Inhibition rate (%)
T1 construct: purchased Eurofins (KinaseProfiler)
T1 sequence (P10721 26-976 D816V): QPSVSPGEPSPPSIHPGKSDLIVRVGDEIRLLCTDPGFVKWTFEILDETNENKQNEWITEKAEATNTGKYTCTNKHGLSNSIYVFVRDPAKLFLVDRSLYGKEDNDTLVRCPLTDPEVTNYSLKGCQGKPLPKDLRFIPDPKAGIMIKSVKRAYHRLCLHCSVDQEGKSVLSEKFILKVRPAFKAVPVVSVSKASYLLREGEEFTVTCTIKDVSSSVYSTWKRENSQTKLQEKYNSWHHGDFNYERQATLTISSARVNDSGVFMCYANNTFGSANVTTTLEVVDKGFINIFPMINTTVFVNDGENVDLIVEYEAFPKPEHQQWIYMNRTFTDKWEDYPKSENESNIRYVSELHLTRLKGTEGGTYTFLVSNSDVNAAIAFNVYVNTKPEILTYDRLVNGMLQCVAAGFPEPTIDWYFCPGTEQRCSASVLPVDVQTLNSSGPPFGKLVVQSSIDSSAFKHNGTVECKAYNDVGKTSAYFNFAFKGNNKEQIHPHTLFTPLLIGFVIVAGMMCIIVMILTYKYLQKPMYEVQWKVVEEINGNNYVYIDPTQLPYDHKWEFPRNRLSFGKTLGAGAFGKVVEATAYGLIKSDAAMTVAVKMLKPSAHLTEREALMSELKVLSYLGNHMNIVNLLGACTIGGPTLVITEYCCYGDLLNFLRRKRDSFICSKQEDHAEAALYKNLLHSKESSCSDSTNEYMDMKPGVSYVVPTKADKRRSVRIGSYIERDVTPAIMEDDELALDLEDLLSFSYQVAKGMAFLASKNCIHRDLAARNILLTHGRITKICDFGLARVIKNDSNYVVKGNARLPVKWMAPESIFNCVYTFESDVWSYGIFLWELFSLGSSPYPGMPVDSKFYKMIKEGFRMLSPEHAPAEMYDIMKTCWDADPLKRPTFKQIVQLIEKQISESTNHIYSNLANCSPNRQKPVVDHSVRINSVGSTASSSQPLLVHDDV

[2] = biological target: T2, MINK(h) (Homo sapiens, UniProt Q8N4C8); details: read-out: Inhibition rate (%)
T2 construct: purchased Eurofins (KinaseProfiler)

[3] = biological target: T3, MLK2(h) (Homo sapiens, UniProt Q02779); details: read-out: Inhibition rate (%)
T3 construct: purchased Eurofins (KinaseProfiler)

[4] = biological target: T4, MLCK(h) (Homo sapiens, UniProt Q15746); details: read-out: Inhibition rate (%)
T4 construct: purchased Eurofins (KinaseProfiler)

[5] = biological target: T5, cKit(D816H)(h) (Homo sapiens, UniProt P10721, D816H); details: read-out: Inhibition rate (%)
T5 construct: purchased Eurofins (KinaseProfiler)
T5 sequence (P10721 26-976 D816H): as the sequence (P10721 26-976 D816V) above, with V791H counted along it

[6] = biological target: T6, NEK9(h) (Homo sapiens, UniProt Q8TD19); details: read-out: Inhibition rate (%)
T6 construct: purchased Eurofins (KinaseProfiler)
T6 sequence (Q8TD19 1-979): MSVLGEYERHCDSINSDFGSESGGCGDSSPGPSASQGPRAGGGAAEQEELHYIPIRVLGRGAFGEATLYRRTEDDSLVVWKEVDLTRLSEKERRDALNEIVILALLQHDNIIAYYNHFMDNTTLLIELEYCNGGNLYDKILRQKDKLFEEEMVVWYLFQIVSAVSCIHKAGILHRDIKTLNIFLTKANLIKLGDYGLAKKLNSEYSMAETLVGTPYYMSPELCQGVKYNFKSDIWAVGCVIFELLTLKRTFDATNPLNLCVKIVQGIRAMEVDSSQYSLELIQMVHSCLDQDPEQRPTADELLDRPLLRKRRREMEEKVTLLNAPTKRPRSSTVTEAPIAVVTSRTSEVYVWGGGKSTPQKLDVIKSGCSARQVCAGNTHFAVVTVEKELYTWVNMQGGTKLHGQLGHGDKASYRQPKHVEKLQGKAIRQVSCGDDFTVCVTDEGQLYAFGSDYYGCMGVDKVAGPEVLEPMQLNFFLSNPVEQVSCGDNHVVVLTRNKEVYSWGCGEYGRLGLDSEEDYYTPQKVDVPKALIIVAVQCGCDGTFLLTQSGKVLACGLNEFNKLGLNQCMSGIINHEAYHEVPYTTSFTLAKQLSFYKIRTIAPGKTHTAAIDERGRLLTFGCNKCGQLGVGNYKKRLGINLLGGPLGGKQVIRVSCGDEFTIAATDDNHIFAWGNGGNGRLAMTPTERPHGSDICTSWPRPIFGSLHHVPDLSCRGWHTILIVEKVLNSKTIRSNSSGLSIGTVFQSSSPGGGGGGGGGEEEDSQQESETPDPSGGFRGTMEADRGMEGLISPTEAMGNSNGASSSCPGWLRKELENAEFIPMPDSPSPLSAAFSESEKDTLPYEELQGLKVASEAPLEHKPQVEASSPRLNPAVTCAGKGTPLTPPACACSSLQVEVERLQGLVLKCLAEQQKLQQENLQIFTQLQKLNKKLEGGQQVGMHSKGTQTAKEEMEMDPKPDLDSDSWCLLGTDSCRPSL

[7] = biological target: T7, Fes(h) (Homo sapiens, UniProt P07332); details: read-out: Inhibition rate (%)
T7 construct: purchased Eurofins (KinaseProfiler)

[8] = biological target: FGFR3(h) (Homo sapiens, UniProt P22607)
FGFR3(h), sequence (P22607 23-806): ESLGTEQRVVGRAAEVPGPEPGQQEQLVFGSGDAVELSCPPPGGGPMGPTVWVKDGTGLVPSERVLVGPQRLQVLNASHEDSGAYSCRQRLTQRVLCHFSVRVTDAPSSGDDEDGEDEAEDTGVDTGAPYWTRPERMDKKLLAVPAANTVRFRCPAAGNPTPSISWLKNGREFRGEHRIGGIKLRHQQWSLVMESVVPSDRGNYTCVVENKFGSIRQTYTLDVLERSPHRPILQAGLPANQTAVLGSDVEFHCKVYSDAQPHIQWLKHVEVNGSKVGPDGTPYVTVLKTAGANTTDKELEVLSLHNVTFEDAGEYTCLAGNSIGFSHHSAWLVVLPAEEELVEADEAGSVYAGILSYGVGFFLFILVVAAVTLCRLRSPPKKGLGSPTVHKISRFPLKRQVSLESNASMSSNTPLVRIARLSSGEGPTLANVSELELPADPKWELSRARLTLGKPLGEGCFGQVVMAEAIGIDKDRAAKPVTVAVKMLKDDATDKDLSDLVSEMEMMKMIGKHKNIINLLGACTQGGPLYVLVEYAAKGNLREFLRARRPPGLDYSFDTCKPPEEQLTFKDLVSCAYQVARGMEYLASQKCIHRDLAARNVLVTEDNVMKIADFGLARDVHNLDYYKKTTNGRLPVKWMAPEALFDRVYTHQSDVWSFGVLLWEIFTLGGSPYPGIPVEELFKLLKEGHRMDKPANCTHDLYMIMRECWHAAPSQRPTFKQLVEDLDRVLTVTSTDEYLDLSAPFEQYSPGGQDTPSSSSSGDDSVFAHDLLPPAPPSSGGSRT

[9] = biological target: T8, PI3 Kinase (p110α(E542K)/p85α)(h) (Homo sapiens, UniProt P42336, E542K); details: read-out: Inhibition rate (%)
T8 construct: purchased Eurofins (KinaseProfiler)

[10] = biological target: T9, Tie2(R849W)(h) (Homo sapiens, UniProt Q02763, R849W); details: read-out: Inhibition rate (%)
T9 construct: purchased Eurofins (KinaseProfiler)
T9 sequence (Q02763 23-1124 R849W): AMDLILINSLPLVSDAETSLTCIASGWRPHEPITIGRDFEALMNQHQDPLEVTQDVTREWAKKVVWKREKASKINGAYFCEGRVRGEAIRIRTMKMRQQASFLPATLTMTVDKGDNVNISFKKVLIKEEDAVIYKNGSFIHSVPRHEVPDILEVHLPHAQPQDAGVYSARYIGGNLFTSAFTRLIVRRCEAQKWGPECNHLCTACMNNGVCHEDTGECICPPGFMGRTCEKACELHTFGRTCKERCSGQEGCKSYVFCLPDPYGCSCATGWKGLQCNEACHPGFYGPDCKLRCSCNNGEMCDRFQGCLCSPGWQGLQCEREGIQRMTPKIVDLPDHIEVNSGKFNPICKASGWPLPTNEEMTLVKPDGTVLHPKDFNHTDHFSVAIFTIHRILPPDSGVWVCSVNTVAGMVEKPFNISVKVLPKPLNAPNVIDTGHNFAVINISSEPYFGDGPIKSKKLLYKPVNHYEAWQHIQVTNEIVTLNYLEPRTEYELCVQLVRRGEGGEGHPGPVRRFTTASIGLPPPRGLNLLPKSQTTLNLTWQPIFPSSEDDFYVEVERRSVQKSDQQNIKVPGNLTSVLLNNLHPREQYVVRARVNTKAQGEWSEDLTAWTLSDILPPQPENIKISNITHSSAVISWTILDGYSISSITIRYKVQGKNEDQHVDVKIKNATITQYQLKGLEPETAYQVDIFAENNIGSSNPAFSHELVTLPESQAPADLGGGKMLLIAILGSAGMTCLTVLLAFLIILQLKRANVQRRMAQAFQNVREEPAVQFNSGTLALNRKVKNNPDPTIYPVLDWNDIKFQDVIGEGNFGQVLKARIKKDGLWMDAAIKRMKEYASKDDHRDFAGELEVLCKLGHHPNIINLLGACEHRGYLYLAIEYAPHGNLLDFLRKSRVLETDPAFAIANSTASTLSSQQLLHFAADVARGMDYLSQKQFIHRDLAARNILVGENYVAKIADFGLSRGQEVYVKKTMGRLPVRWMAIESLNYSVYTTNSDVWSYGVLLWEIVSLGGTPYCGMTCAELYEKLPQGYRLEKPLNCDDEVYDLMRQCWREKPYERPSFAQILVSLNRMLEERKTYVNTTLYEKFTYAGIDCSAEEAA

[11] = biological target: T10, EGFR(L858R)(h) (Homo sapiens, UniProt P00533, L858R); details: read-out: Inhibition rate (%)
T10 construct: purchased Eurofins (KinaseProfiler)

[12] = biological target: T11, TrkB(h) (Homo sapiens, UniProt Q16620); details: read-out: Inhibition rate (%)
T11 construct: purchased Eurofins (KinaseProfiler)
T11 sequence (Q16620 32-822): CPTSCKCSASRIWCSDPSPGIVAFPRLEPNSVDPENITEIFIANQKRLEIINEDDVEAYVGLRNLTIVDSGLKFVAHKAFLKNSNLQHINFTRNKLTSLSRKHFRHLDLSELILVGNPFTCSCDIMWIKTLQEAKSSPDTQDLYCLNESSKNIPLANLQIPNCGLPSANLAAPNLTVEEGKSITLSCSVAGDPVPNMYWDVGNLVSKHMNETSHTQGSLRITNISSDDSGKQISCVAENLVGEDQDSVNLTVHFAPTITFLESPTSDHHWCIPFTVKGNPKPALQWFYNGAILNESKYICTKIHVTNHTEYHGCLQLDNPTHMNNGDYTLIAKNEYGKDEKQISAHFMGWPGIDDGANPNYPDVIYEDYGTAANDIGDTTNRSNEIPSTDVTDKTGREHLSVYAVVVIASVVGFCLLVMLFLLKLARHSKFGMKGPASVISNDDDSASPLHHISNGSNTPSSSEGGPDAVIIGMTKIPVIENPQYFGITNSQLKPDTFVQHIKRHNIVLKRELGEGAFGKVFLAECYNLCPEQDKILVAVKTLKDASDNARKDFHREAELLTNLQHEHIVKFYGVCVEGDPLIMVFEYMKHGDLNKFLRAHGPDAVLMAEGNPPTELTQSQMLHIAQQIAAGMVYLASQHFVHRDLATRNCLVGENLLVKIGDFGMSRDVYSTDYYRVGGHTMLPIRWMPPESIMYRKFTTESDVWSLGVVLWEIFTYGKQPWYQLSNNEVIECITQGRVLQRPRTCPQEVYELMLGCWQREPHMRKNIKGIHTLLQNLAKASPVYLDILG

[13] = biological target: T12, Pyk2(h) (Homo sapiens, UniProt Q14289); details: read-out: Inhibition rate (%)
T12 construct: purchased Eurofins (KinaseProfiler)
T12 sequence (Q14289 whole entry): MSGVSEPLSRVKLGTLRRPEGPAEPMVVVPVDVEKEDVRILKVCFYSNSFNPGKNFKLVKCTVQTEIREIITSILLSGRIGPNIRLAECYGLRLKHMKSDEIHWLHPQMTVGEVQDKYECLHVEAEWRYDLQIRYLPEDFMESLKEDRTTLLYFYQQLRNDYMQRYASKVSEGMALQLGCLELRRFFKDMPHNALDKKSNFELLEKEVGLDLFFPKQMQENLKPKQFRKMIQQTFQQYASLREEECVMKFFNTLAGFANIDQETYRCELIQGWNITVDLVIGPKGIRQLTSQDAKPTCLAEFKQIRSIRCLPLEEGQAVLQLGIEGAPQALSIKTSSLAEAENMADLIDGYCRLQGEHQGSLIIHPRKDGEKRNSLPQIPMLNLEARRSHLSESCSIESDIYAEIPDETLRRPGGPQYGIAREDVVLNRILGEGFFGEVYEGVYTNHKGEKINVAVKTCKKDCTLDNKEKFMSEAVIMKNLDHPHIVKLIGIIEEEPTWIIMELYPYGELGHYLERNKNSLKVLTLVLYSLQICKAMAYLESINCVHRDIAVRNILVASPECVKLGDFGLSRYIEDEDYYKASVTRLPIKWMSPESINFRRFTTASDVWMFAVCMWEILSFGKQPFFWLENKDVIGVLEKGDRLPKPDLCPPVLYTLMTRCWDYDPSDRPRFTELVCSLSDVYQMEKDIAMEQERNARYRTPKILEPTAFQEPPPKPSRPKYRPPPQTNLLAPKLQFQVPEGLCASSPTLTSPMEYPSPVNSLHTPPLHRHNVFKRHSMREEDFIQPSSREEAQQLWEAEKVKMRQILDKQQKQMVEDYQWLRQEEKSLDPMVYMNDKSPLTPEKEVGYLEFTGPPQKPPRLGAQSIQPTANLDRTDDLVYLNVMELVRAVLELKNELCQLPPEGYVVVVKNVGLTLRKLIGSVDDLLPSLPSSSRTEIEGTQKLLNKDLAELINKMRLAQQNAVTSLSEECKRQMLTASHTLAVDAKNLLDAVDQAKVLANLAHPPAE

[14] = biological target: T13, MKK7β(h) (Homo sapiens, UniProt O14733); details: read-out: Inhibition rate (%)
T13 construct: purchased Eurofins (KinaseProfiler)
T13 sequence (O14733 1-419): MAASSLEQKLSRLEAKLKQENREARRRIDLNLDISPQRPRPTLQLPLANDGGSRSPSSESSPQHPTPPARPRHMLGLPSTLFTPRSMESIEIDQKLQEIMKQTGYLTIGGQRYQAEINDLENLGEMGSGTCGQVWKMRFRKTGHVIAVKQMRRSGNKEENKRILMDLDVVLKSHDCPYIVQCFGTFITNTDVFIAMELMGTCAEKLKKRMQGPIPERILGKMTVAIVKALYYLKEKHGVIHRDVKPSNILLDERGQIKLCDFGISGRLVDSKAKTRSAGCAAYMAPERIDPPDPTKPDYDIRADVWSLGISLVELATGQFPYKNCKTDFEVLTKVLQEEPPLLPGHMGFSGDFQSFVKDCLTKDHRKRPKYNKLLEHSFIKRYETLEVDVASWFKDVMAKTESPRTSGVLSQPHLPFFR

COc1cc(OC)c(Cl)c(-c2ccc3c(NC(=O)c4ccc(N5CCNC(C)(C)C5)cc4)n[nH]c3n2)c1Cl [3D185]
inhibition at 0.01 µM ([1]; 10 nM): -7% | inhibition at 0.1 µM ([1]; 100 nM): 1% | inhibition at 1 µM ([1]; 1000 nM): 3% | inhibition at 0.01 µM ([2]; 10 nM): 28% | inhibition at 0.1 µM ([2]; 100 nM): 68% | inhibition at 1 µM ([2]; 1000 nM): 90% | inhibition at 0.01 µM ([3]; 10 nM): 4% | inhibition at 0.1 µM ([3]; 100 nM): 2% | inhibition at 1 µM ([3]; 1000 nM): 24% | inhibition at 0.01 µM ([4]; 10 nM): 5% | inhibition at 0.1 µM ([4]; 100 nM): -1% | inhibition at 1 µM ([4]; 1000 nM): 11% | inhibition at 0.01 µM ([5]; 10 nM): 22% | inhibition at 0.1 µM ([5]; 100 nM): 27% | inhibition at 1 µM ([5]; 1000 nM): 44% | inhibition at 0.01 µM ([6]; 10 nM): -12% | inhibition at 0.1 µM ([6]; 100 nM): -6% | inhibition at 1 µM ([6]; 1000 nM): 14% | inhibition at 0.01 µM ([7]; 10 nM): -8% | inhibition at 0.1 µM ([7]; 100 nM): 36% | inhibition at 1 µM ([7]; 1000 nM): 91% | IC50 ([8]; estimated from 372-kinase panel): < 10 nM | inhibition at 0.01 µM ([8]; read-out: Inhibition rate (%)): 94% | inhibition at 0.1 µM ([8]; read-out: Inhibition rate (%)): 99% | inhibition at 1 µM ([8]; read-out: Inhibition rate (%)): 100% | inhibition at 0.01 µM ([9]; 10 nM): -2% | inhibition at 0.1 µM ([9]; 100 nM): 2% | inhibition at 1 µM ([9]; 1000 nM): 2% | inhibition at 0.01 µM ([10]; 10 nM): -6% | inhibition at 0.1 µM ([10]; 100 nM): 39% | inhibition at 1 µM ([10]; 1000 nM): 86% | inhibition at 0.01 µM ([11]; 10 nM): 1% | inhibition at 0.1 µM ([11]; 100 nM): 9% | inhibition at 1 µM ([11]; 1000 nM): 30% | inhibition at 0.01 µM ([12]; 10 nM): 31% | inhibition at 0.1 µM ([12]; 100 nM): 87% | inhibition at 1 µM ([12]; 1000 nM): 97% | inhibition at 0.01 µM ([13]; 10 nM): 2% | inhibition at 0.1 µM ([13]; 100 nM): 24% | inhibition at 1 µM ([13]; 1000 nM): 71% | inhibition at 0.01 µM ([14]; 10 nM): 9% | inhibition at 0.1 µM ([14]; 100 nM): -2% | inhibition at 1 µM ([14]; 1000 nM): 12%
